Target: T1, guinea pig cortex NK3 receptor (Cavia porcellus, UniProt P30098)
T1 construct: guinea pig cortex NK3 receptor; from tissue; host or cells: guinea pig (brain) cortex, prepared by the cited method of Guard et al., Br. J. Pharmacol. (1990), 99, 767
T1 sequence (P30098 1-440): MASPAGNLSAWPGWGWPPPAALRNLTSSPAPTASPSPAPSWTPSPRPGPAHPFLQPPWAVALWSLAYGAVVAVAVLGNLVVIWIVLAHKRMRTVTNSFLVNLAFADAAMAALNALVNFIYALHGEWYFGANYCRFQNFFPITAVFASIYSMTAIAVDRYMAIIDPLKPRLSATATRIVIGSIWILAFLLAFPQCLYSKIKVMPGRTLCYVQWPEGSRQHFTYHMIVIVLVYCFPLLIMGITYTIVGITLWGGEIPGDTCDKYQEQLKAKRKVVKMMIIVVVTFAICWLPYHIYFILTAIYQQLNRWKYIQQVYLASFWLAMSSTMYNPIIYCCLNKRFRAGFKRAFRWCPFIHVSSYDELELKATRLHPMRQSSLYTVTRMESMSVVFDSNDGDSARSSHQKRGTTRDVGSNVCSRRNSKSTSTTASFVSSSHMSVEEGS
Assay: in vitro affinity for the guinea pig cortex NK3 receptor (displacement of [^3 H] senktide)
Assay type: binding
Conditions: displacement of [^3 H] senktide at guinea pig cortex NK3 receptor
Experimental: The affinity of the compounds of formula (I) and their salts for the NK3 receptor can be tested in vitro by testing their ability to displace [^3 H] senktide at the guinea pig cortex NK3 receptor. The receptors are prepared by the method described by S. Guard, et al, in Br.J.Pharmacol. (1990), 99, 767.
The data below illustrates the in vitro affinity of substances of the invention for the guinea pig cortex NK3 receptor, which assays were carried out according to the method mentioned earlier on page 15.

| IC50 [nM] | SMILES |
| --- | --- |
| 3.98 | CS(=O)(=O)N1CCN(C2CN(CCC[C@]3(c4ccc(Cl)c(Cl)c4)CCCN(C(=O)c4ccc(F)c(F)c4)C3)C2)CC1 [Example 17, (+)-3(R)-3-(3,4-Dichlorophenyl)-1-(3,4-difluorobenzoyl)-3-(3-[3-(4-methanesulphonylpiperazin-1-yl)azetidin-1-yl]propyl)piperidine] |
| 11.2 | CS(=O)(=O)N(c1ccccc1)C1CN(CCC[C@]2(c3ccc(Cl)c(Cl)c3)CCCN(C(=O)c3ccccc3)C2)C1 [Example 13] |
| 1.58 | CS(=O)(=O)N1CCN(C2CN(CCC[C@]3(c4ccc(Cl)c(Cl)c4)CCCN(C(=O)c4ccccc4)C3)C2)CC1 [Example 3, (+)-3(R)-1-Benzoyl-3-(3,4-dichlorophenyl)-3-(3-[3-(4-methanesulphonylpiperazin-1-yl)azetidin-1-yl]propyl)piperidine] |

From US6262046A, “Azetidinylpropylpiperidine derivatives, intermediates and use as tachykinin antagonists” (Pfizer Inc., priority 1997, dated 2001)
